Laboratory results reported in paper PMC6271245, “Discovery of Gramine Derivatives That Inhibit the Early Stage of EV71 Replication in Vitro” (Molecules, 2014).
Converted amounts (≈) assume the structure as drawn.

tested on: not listed separately; test: Cytotoxicity on uninfected Vero cells, MTT; assay type: cell-based; conditions: African green monkey
Method: (§1) The antiviral activities of gramine and its derivatives against EV71 based on inhibition of virus-induced cytopathogenicity effects (CPEs) in African green monkey kidney cells (Vero) and rhabdomyosarcoma cells (RD) were examined. The cytotoxic effects were also evaluated. The inhibitory activities expressed as half maximal effective concentration (EC50) values and selectivity indexes (SI) for the target compounds are presented in Table 1, and the dose-dependent antiviral effects are shown in Figure 1A.
(§2) The activity of compounds against EV71 was determined based on the inhibition of virus-induced cytopathogenicity effects (CPEs) in acutely infected cells. Vero and RD cells grown to 90% confluency in 96-well dishes were washed with phosphate buffered saline (PBS) and infected with 100 TCID50 of EV71 mixed with serial dilutions of tested compounds for 1.5 h at 37 °C. The inoculum was aspirated and cells were incubated with DMEM and test compounds at 37 °C, 5% CO2 for 48 h. The CPEs were observed microscopically and the viability of the cells was determined with a 3-(4,5-dimethylthiazol-2-yl)-2,5-diphenyltetrazolium bromide (MTT) assay. The concentrations required for the test compounds to achieve 50% protection from virus-induced cytopathogenicity (EC50) were determined. Adverse effects of these compounds on the host cells were also assessed by means of the MTT-method; by exposing uninfected cells to various concentrations of test compounds for 48 h at 37 °C, the viability of the cells was detected. The 50% cell cytotoxic concentrations (CC50) of compounds were calculated with the SPSS software (SPSS, Chicago, IL, USA). Selectivity indexes were calculated as the ratio of CC50: EC50.
(§3) Cell viability was assessed by an MTT assay, which functions based on the reduction of a MTT into formazan dye by active mitochondria. The cells were treated with 100 µL of MTT (1 mg/mL, Sigma, St. Louis, MO, USA) and incubated at 37 °C for 4 h. The reaction was blocked by DMSO and measured in a microplate reader (Bio-Tek Instruments, Winooski, VT, USA) at 492 nm. The untreated control was arbitrarily set as 100%.

SMILES	CC50 at 48 h
CN(C)Cc1c[nH]c2ccccc12 [Gramine]	101 ± 5.6 µg/mL (≈ 582 µM)
NC(=O)c1ncn([C@@H]2O[C@H](CO)[C@@H](O)[C@H]2O)n1 [ribavirin, reference compound]	> 500 µg/mL

same assay, conditions: African green monkey; concentration reducing cell viability by 50%; uninfected Vero cells, 48 h, MTT; read-out: CC50 (µg/mL) Vero

SMILES	CC50 at 48 h
Clc1ccccc1C(Nc1ccccn1)c1c[nH]c2ccccc12 (stereo not shown) [Compound 4b]	18.6 ± 1.4 µg/mL (≈ 55.7 µM)
Clc1ccc(C(Nc2ccccn2)c2c[nH]c3ccccc23)cc1 (stereo not shown) [Compound 4c]	22.4 ± 3.6 µg/mL (≈ 67.1 µM)
Fc1ccccc1C(Nc1ccccn1)c1c[nH]c2ccccc12 (stereo not shown) [Compound 4d]	37.8 ± 5.8 µg/mL (≈ 119 µM)
Fc1ccc(C(Nc2ccccn2)c2c[nH]c3ccccc23)cc1 (stereo not shown) [Compound 4e]	40.7 ± 2.5 µg/mL (≈ 128 µM)
Cn1cc(C(Nc2ccccn2)c2ccccc2Cl)c2ccccc21 (stereo not shown) [Compound 4f]	86.4 ± 7.4 µg/mL (≈ 248 µM)
Cn1cc(C(Nc2ccccn2)c2ccc(Cl)cc2)c2ccccc21 (stereo not shown) [Compound 4g]	38.6 ± 5.7 µg/mL (≈ 111 µM)
Cn1cc(C(Nc2ccccn2)c2ccccc2F)c2ccccc21 (stereo not shown) [Compound 4h]	89.3 ± 12.6 µg/mL (≈ 269 µM)

tested on: not listed separately; test: Cytotoxicity on uninfected RD cells, MTT; assay type: cell-based; conditions: human, concentration reducing cell viability by 50%
Method: Human RD cells and Vero cells were maintained in Dulbecco’s modified Eagle’s medium (Gibco-Invitrogen, Carlsbad, CA, USA) supplemented with 10% fetal bovine serum (FBS; Gibco), 100 U/mL of penicillin and streptomycin, and 2 mM L-glutamine. Enterovirus 71 (EV71) was kindly provided by Zhanqiu Yang (Institute of Medical Virology, School of Medicine, Wuhan University, China) and propagated in RD cell lines. The virus titer was determined by the standard method of median tissue culture infective dose (TCID50) on RD cells.
as §2, §3

SMILES	CC50 at 48 h
Clc1ccccc1C(Nc1ccccn1)c1c[nH]c2ccccc12 (stereo not shown) [Compound 4b]	22.8 ± 1.7 µg/mL (≈ 68.3 µM)
Clc1ccc(C(Nc2ccccn2)c2c[nH]c3ccccc23)cc1 (stereo not shown) [Compound 4c]	24.6 ± 3.5 µg/mL (≈ 73.7 µM)
Fc1ccccc1C(Nc1ccccn1)c1c[nH]c2ccccc12 (stereo not shown) [Compound 4d]	28 ± 5.2 µg/mL (≈ 88.2 µM)
Fc1ccc(C(Nc2ccccn2)c2c[nH]c3ccccc23)cc1 (stereo not shown) [Compound 4e]	29.5 ± 3.3 µg/mL (≈ 93 µM)
Cn1cc(C(Nc2ccccn2)c2ccccc2Cl)c2ccccc21 (stereo not shown) [Compound 4f]	44 ± 5.1 µg/mL (≈ 126 µM)
Cn1cc(C(Nc2ccccn2)c2ccc(Cl)cc2)c2ccccc21 (stereo not shown) [Compound 4g]	32 ± 1.8 µg/mL (≈ 92 µM)
Cn1cc(C(Nc2ccccn2)c2ccccc2F)c2ccccc21 (stereo not shown) [Compound 4h]	52.2 ± 8.3 µg/mL (≈ 158 µM)
CN(C)Cc1c[nH]c2ccccc12 [Gramine]	85 ± 16.3 µg/mL (≈ 488 µM)
NC(=O)c1ncn([C@@H]2O[C@H](CO)[C@@H](O)[C@H]2O)n1 [ribavirin, reference compound]	436 µg/mL (≈ 1780 µM)

tested on: Enterovirus 71 (EV71); test: Inhibition of EV71-induced cytopathogenicity (CPE) in RD cells, MTT; assay type: cell-based; conditions: Enterovirus A; concentration for 50% protection from virus-induced cytopathogenicity; RD cells, 100 TCID50 EV71, 48 h, MTT; read-out: EC50 (µg/mL) RD
Method: as §1, §2, §3

SMILES	EC50
Fc1ccccc1C(Nc1ccccn1)c1c[nH]c2ccccc12 (stereo not shown) [Compound 4d]	5.8 ± 1.4 µg/mL (≈ 18.3 µM)
Cn1cc(C(Nc2ccccn2)c2ccc(Cl)cc2)c2ccccc21 (stereo not shown) [Compound 4g]	4.9 ± 1.2 µg/mL (≈ 14.1 µM)
Cn1cc(C(Nc2ccccn2)c2ccccc2F)c2ccccc21 (stereo not shown) [Compound 4h]	11.2 ± 4.6 µg/mL (≈ 33.8 µM)
NC(=O)c1ncn([C@@H]2O[C@H](CO)[C@@H](O)[C@H]2O)n1 [ribavirin, reference compound]	32.1 µg/mL (≈ 131 µM)

Results, then the compound that gave them:

EC50	SMILES
7.4 ± 1.1 µg/mL (≈ 22.2 µM)	Clc1ccccc1C(Nc1ccccn1)c1c[nH]c2ccccc12 (stereo not shown) [Compound 4b]
6.7 ± 0.8 µg/mL (≈ 20.1 µM)	Clc1ccc(C(Nc2ccccn2)c2c[nH]c3ccccc23)cc1 (stereo not shown) [Compound 4c]
6.2 ± 2.8 µg/mL (≈ 19.5 µM)	Fc1ccc(C(Nc2ccccn2)c2c[nH]c3ccccc23)cc1 (stereo not shown) [Compound 4e]

same assay, conditions: concentration for 50% protection from virus-induced cytopathogenicity; RD cells, 100 TCID50 EV71, 48 h, MTT

SMILES	EC50 (µg/mL) RD
Cn1cc(C(Nc2ccccn2)c2ccccc2Cl)c2ccccc21 (stereo not shown) [Compound 4f]	— (less than 50% inhibition)
CN(C)Cc1c[nH]c2ccccc12 [Gramine]	— (less than 50% inhibition)

tested on: Enterovirus 71 (EV71); test: Inhibition of EV71-induced cytopathogenicity (CPE) in Vero cells, MTT; assay type: cell-based; conditions: Enterovirus A; concentration for 50% protection from virus-induced cytopathogenicity; Vero cells, 100 TCID50 EV71, 48 h, MTT; mean ± SD of three experiments; read-out: EC50 (µg/mL) Vero
Method: as §1
Figure 1 Gramine and its synthetic derivatives inhibited virus-induced CPE. (A) Vero cells were infected with 100 TCID50 of EV71 mixed with serial dilutions of tested compounds for 1.5 h at 37 °C; the inoculum was aspirated and cells were incubated with DMEM/tested compounds at 37 °C, 5% CO2 for 48 h pi. The viability of the cells was determined with an MTT assay; (B) Morphology image of Vero and RD cells treated with compounds 4a, 4i, 4r, and 4s for 48 h pi. (magnification, 20×).
as §2, §3

SMILES	EC50
Fc1ccccc1C(Nc1ccccn1)c1c[nH]c2ccccc12 (stereo not shown) [Compound 4d]	9.2 ± 2.1 µg/mL (≈ 29 µM)
Cn1cc(C(Nc2ccccn2)c2ccccc2Cl)c2ccccc21 (stereo not shown) [Compound 4f]	14.4 ± 3.2 µg/mL (≈ 41.4 µM)
Cn1cc(C(Nc2ccccn2)c2ccc(Cl)cc2)c2ccccc21 (stereo not shown) [Compound 4g]	4.9 ± 0.7 µg/mL (≈ 14.1 µM)
Cn1cc(C(Nc2ccccn2)c2ccccc2F)c2ccccc21 (stereo not shown) [Compound 4h]	10.5 ± 2.1 µg/mL (≈ 31.7 µM)
NC(=O)c1ncn([C@@H]2O[C@H](CO)[C@@H](O)[C@H]2O)n1 [ribavirin, reference compound]	44.6 ± 13.5 µg/mL (≈ 183 µM)

Next, values leading:

EC50	SMILES
5.1 ± 2.7 µg/mL (≈ 15.3 µM)	Clc1ccccc1C(Nc1ccccn1)c1c[nH]c2ccccc12 (stereo not shown) [Compound 4b]
5.6 ± 1.3 µg/mL (≈ 16.8 µM)	Clc1ccc(C(Nc2ccccn2)c2c[nH]c3ccccc23)cc1 (stereo not shown) [Compound 4c]
7.3 ± 2.6 µg/mL (≈ 23 µM)	Fc1ccc(C(Nc2ccccn2)c2c[nH]c3ccccc23)cc1 (stereo not shown) [Compound 4e]

same assay, conditions: concentration for 50% protection from virus-induced cytopathogenicity; Vero cells, 100 TCID50 EV71, 48 h, MTT; mean ± SD of three experiments

SMILES	EC50 (µg/mL) Vero
CN(C)Cc1c[nH]c2ccccc12 [Gramine]	— ^d (less than 50% inhibition)

same assay, conditions: inhibition of EV71-induced CPEs compared with virus control

SMILES	anti-EV71 activity
CN(C)Cc1c[nH]c2ccccc12 [Gramine]	not observed
